Results on two molecules are retold here after patent US9096550B2, “Bryostatin analogues and methods of making and using thereof” (UNIVERSITY OF UTAH RESEARCH FOUNDATION, priority 2008, dated 2015).

Format in all cases: cell-based, human
The subject of one test is cFos. In words: Induction of cFos in LNCaP cells (western blot). To be noted: LNCaP cells treated 2, 5 or 8 hrs. On the procedure: (§1) FIGS. 14A-C show the induction of cFos and phosphorylation of PKC at Y311 in LNCaP cells. […] The proteins from the lysates were separated by 10% SDS-PAGE, electroblotted to nitrocellulose membranes and probed with anti-cFos primary and anti-rabbit secondary antibodies, followed by ECL visualization. Data are representative of four independent experiments. […] The cFos signal was normalized to the β-actin signal to correct for loading and the response induced by 100 nM PMA at 2 hrs was taken as 100%. Data represent the means+SEM of four independent experiments. […] Data represent the means+SEM of three independent experiments.
(§2) LNCaP cells treated for 48 hours with the different drugs or with DMSO as control were washed and re-suspended in phosphate buffered saline. Yo-Pro-1 (Invitrogen, Carlsbad, Calif.) was added to a final concentration of 1 μM and the cells were incubated for 20 min at 4° C. in the dark. 7-Aminoactinomycin D (7-AAD) (Invitrogen, Carlsbad, Calif.) was then added at a 5 μg/mL final concentration 10 minutes before analysis by flow cytometry using the FACSCalibur system (Becton Dickinson, Mountain View, Calif.). Data were analyzed with FlowJo 7 (Tree Star Inc., Ashland, Oreg.). The Yo-Pro-1 positive cells were considered apoptotic and were expressed as % of total cells. […]
(In general: Immunoblotting shows a protein as a band on a membrane.)

Another test has as its system PKC delta. The test is described as follows: Phosphorylation of PKC delta at Y311 in LNCaP cells (western blot). How it is done: as §1, §2
For a further test, the system named is U937 cells. In words: Inhibition of U937 cell proliferation. To be noted: for inhibition of U937 cell proliferation: compound alone. How it is done:
U937 cells (Sundstrom, C.; Nilsson, K.: Establishment and characterization of a human histiocytic lymphoma cell line (U-937). Int. J. Cancer 1976, 17: 565-577.), purchased from ATCC (Manassas, Va.) and cultured in RPMI-1640 medium supplemented with 10% FBS (ATCC, Manassas, Va.), were plated in 35 mm dishes at a density of 2×10^5 living cells/ml and treated with different concentrations of the drugs or DMSO. After 72 hours, the number of cells in the supernatant (non-attached cells) and the number of attached cells (after trypsinization) were counted using a Beckman particle counter (Beckman Coulter Inc., Fullerton, Calif.). The number of attached cells is expressed as percent of total cells (FIGS. 8-10).
U937 cells were treated with PMA (0.1-100 nM), bryostatin 1 (1-1000 nM), the indicated compound (1-1000 nM), 10 nM PMA with different concentrations of bryostatin 1 (1-1000 nM) or 10 nM PMA with different concentrations of indicated compound (1-1000 nM). The number of attached and non-attached cells was counted and the number of total cells was expressed as % of control. The bars and error bars represent the average and the standard error of the mean of five independent experiments (FIGS. 8-10).
U937 cells (Sundstrom and Nilsson, 1976), purchased from ATCC (Manassas, Va.) and cultured in RPMI-1640 medium supplemented with 10% FBS (ATCC, Manassas, Va.), were plated in 35 mm dishes at a density of 1×10^5 living cells/ml and treated with different concentrations of the drugs or DMSO. After 72 hours, the number of cells in the supernatant (non-attached cells) and the number of attached cells (after trypsinization) were counted using a particle counter. The number of attached cells is expressed as percent of total cells.
U937 cells were treated with PMA (0.01-100 nM), bryostatin1 (0.1-1000 nM), analogue 12 (0.1-1000 nM), 10 nM PMA with different concentrations of bryostatin 1 (0.1-1000 nM) or 10 nM PMA with different concentrations of analogue 12 (0.1-1000 nM). The numbers of attached and non-attached cells were counted and the number of total cells was expressed as % of control. The bars and error bars represent the average and the standard error of the mean of at least three independent experiments.
U-937 cells (Sundstrom and Nilsson, 1976), purchased from ATCC (Manassas, Va.) and cultured in RPMI-1640 medium supplemented with 10% FBS (ATCC, Manassas, Va.), were plated in 35 mm dishes at a density of 1×10^5 living cells/ml and treated with different concentrations of the drugs or DMSO. After 72 hours, the number of cells in the supernatant (non-attached cells) and the number of attached cells (after trypsinization) were counted using a particle counter. The number of attached cells is expressed as percent of total cells.
U-937 cells were treated with PMA (0.1-100 nM), bryostatin 1 (1-1000 nM), the indicated compound (1-1000 nM), 10 nM PMA with different concentrations of bryostatin 1 (1-1000 nM) or 10 nM PMA with different concentrations of indicated compound (1-1000 nM). The number of attached and non-attached cells was counted and the number of total cells was expressed as % of control. The bars and error bars represent the average and the standard error of the mean of at least three independent experiments.

`CCCCCCCCCCCCCC(=O)O[C@@H]1[C@@H](C)[C@@]2(O)[C@@H](C=C(CO)C[C@]3(O)C(=O)C(C)=C[C@@H]23)[C@@H]2C(C)(C)[C@]12OC(C)=O` [PMA]: the “time course of cFos induction” value in the test on cFos is on record as “persisted for 5 hrs, with weak induction still evident at 8 hrs”. Further, the “phosphorylation of PKC delta at Y311” value in the test on PKC delta was “rapid phosphorylation”. Moreover, the “inhibition of U937 cell proliferation” value in the test on U937 cells was “inhibits cell proliferation”.

On to `CCC/C=C/C=C/C(=O)O[C@H]1/C(=C/C(=O)OC)C[C@H]2C[C@H]([C@@H](C)O)OC(=O)C[C@H](O)C[C@@H]3C[C@H](OC(C)=O)C(C)(C)[C@](O)(C[C@@H]4C/C(=C/C(=O)OC)C[C@H](/C=C/C(C)(C)[C@]1(O)O2)O4)O3` [bryostatin 1], for which the “time course of cFos induction” value with cFos is listed as “largely lost by 5 hrs”. For the same molecule, the “phosphorylation of PKC delta at Y311” value with PKC delta is “only very weak phosphorylation”. Besides, the “block of PMA inhibition of U937 cell proliferation” value in the test with U937 cells (10 nM PMA with different concentrations of compound) is given as “able to block the effect of PMA in a dose dependent manner”. Also, the “inhibition of U937 cell proliferation” value in the test with U937 cells is given as “not strongly antiproliferative”; with U937 cells (listed as Bryostatin 1), “much less effect on either response”.
